Values joined by “and” are separate entries in the source; they are usually repeats but may differ in a detail not shown here. Equal values may be shown once.
Experiments:
[1] = tested on: phospho-Akt Ser473; experiment: Inhibition of Akt phosphorylation on Ser473 in IgE sensitized, antigen stimulated RBL-2H3 cells; assay type: cell-based, rat; settings: normalized to total Akt, IgE and antigen for 15 min
Description: The mast cell degranulation assay using the RBL-2H3 cell line (see Example 27) was also used to determine the status of the PI3K/Akt axis. Activation of PI3K leads to production of PIP3 on the cytosolic side of the lipid bilayer. Akt is recruited to the PIP3 domain and subsequently activated by phosphorylation on residues Ser473 and Thr308. (Franke et al., Cell 81:727-736, (1995)). Once recruited to the membrane, it is phosphorylated and activated by other kinases (Hemmings, Science 275:628-630 (1997); Hemmings. Science 276:534 (1997); Downward, Science 279:673-674 (1998); Alessi et al., EMBO J. 15:6541-6551 (1996)). Western blotting of the phosphorylated Ser473 residue on Akt (phospho-Akt Ser473) is widely used to assess the level of activation of the PI3K/Akt axis.
All buffers and solutions used for the phosphor-Akt Ser473 assay were from Meso Scale Discovery. Tris Lysis Buffer consisted of 150 mM NaCl, 20 mM Tris, pH 7.5, 1 mM EDTA, 1 mM EGTA and 1% Triton-X-100. Complete Tris Lysis Buffer was prepared prior to use by addition of protease inhibitor, phosphatase inhibitors and PMSF. The 10x Tris Wash Buffer consisted of 500 mM Tris, pH 7.5, 1.5 M NaCl and 0.2% Tween-20. Blocker A was made up of bovine serum albumin in Tris Wash Buffer. Read Buffer T was used according to manufacturer's instructions. The Whole Cell Lysate Kits used were phospho-Akt Ser473 (K11100D. Lot K0011749) and total ERK½ (K11107D, Lot K0011698) as a loading control.
Protein assay: protein concentration was determined using the BCA (bicinchoninic acid) Protein Assay kit according to the manufacturer's instructions, Briefly, duplicate 10 μl samples of bovine serum albumin (BSA) standards, blank and lysates were incubated in a 96-well plate with 0.2 ml working reagent for 30 min at 37° C. Plates cooled to room temperature for 5 min and absorbance at 562 nm measured in a multi-mode plate reader. Protein concentrations were calculated using FlexStation 3 software (SoftMax Pro version 5.3). Protein concentration of lysates was determined from a standard curve (BSA) using a linear curve fit.
Phosphoprotein assay: protein phosphorylation was determined using the MULTI-SPOT® Assay System (Meso Scale Discovery), providing simultaneous detection of phosphorylated and total proteins. Briefly, capture antibodies against phosphorylated and total protein are patterned on distinct spots in the same well of 96-well plates. Sandwich immunoassay and electrochemiluminescence detection technology are combined to measure intensity of the emitted light from phosphorylated and total protein spots. For analysis of phosphor-Akt Ser473 was performed according to the manufacturer's instructions. The optimal amount of protein was determined at 5 μg lysate per well for ERK½ and 10 μg/well for phospho-Akt Ser473. Plates were blocked with 25 μl/well Blocker A for 1 h at room temperature with gentle agitation. During this time, the lysates were thawed and diluted to the desired protein concentration in complete Tris Lysis Buffer. Plates were washed four times in Tris Wash Buffer and 25 μl lysate per well added. Plates were incubated for 1-3 h at room temperature with agitation according to the manufacturer's recommendations. Plates were washed four times with Tris Wash Buffer, followed by addition of 25 μl/well of the respective detection antibody and incubation for 1 h at room temperature, with agitation. After a final four washes with Tris Wash Buffer 150 μl/well, Read Buffer T was added, and plates read on a SECTOR Imager 6000 plate reader.
The mean background signal from each plate was subtracted from averaged raw data. The amount of total protein phosphorylaled was expressed as % phosphoprotein according to the manufacturer's (Meso Scale Discovery) Instructions.
Levels of phospho-Akt Ser473 were determined in IgE sensitized and antigen stimulated cells after treatment without (positive control) or with 1, 5 and 25 μM test compound and normalized to levels of total Akt.

[2] = tested on: BALB/c-mice; experiment: Allergic contact dermatitis model (TDI), mouse ear swelling test; assay type: in vivo
Experimental: The anti-inflammatory and anti-allergic effects of compound 1a were assessed in a mouse model of allergic contact dermatitis, a response driven primarily by T helper type 2 (Th2) cells. […] In this model, an allergic dermatitis response is obtained by sensitizing mice to TDI and subsequently challenging them with antigen by topical administration onto the ears. A quantitative assessment of anti-inflammatory and anti-allergic effects of topically or orally administered test compounds is possible by measuring the resulting ear swelling.
Female BALB/c-mice were obtained from Charles River (Sulzfeld, Germany) at age 8 weeks. All animals were housed in groups of eight per cage at 22° C. with a 12 h light/dark-cycle. Water and a standard diet (Aitromin, Lage/Lippe, Germany) were available ad libitum. All animals were acclimatized for one week before experimental procedures were commenced.
Experimental procedures for BALB/c mice housing, TDI sensitization and challenge, and measurement of ear thickness were performed as previously described (Baurner et al., J Pharm Pharmacol. 55:1107-1114 (2003)) with the following modifications. For active sensitization, 100 μL of 5% (w/v) TDI was administered to the shaved and stripped abdominal epidermis on day one, and for the next three consecutive days, 50 μL of 5% (w/v) TDI was applied. The allergic reaction was boosted 21 days later by application of 50 μL of 0.5% (w/v) TDI. For the examination of test compound effects, the left ears were used for the TDI challenge (20 μL of 0.5% in acetone) and ear thickness measured 3 h before and 24 h after challenge.
Group size was n=7 mice unless otherwise stated. Test compounds were freshly prepared before administration.
Administration time: to determine optimal time for administration treatment groups were treated orally by gavage with 100 mg/kg of compound 1a (suspended in phosphate-buffered saline (PBS), 10 mL/kg) 4 or 16 h before topical TDI challenge. Vehicle treated mice received PBS (10 mL/kg) orally, 4 h before challenge.
Dose-response: two groups of mice were treated orally with compound 1a at 20 mg/kg or 100 mg/kg suspended in PBS, 4 h before topical TDI challenge. Vehicle treated mice received PBS orally 4 h before challenge.
Compound 1a was administered to two groups of mice topically in 20 μl of a 2% or 6% solution in acetone/water (1:1). The solution was applied, 2 h before topical TDI challenge by administration of 10 μl onto each of the inner and outer surfaces of the left ears. A vehicle group (n=7) was treated with acetone/water (1:1).
Mean and standard error of the mean (SEM) were calculated from individual ear edema values. […]

## CCCCCCCCCCCCCC[N+](C)(C)CCCS(=O)(=O)[O-] [Compound 1a, 3-(N,N-Dimethylmyristylammonio)-Propanesulfonate]
[1]; 1 μM
  Level of phospho-Akt Ser473: 103.1 ± 17.4 % positive control
[1]; 5 μM
  Level of phospho-Akt Ser473: 57.0 ± 15.2 % positive control
[1]; 25 μM
  Level of phospho-Akt Ser473: 13.2 ± 4.2 % positive control
[2]; oral 100 mg/kg, 4 h before TDI challenge
  Inhibition of mouse ear swelling (allergic contact dermatitis): 52% and 51.7* %
[2]; oral 100 mg/kg, 16 h before TDI challenge
  Inhibition of mouse ear swelling (allergic contact dermatitis): 32.2
[2]; topical 2% solution, 2 h before TDI challenge
  Inhibition of mouse ear swelling (allergic contact dermatitis): 72%
[2]; topical 6% solution, 2 h before TDI challenge
  Inhibition of mouse ear swelling (allergic contact dermatitis): 86%

— patent publication US10829506B2, “Amino- or ammonium-containing sulfonic acid, phosphonic acid and carboxylic acid derivatives and their medical use” (GRI Bio, Inc., priority 2011, dated 2020)
